We go through two substances from patent US12708644B2, “Dendritic cell vaccination sequential to chemotherapy” (Excoso a.s., priority 2018, dated 2026).

Data set [1] deals with first-line patients of ovarian carcinoma. To be noted: cited from earlier work; for OS HR: compared to patients not treated with bevacizumab; for PFS HR: continuous after combination with carboplatin/paclitaxel.
Data set [2] deals with women with newly diagnosed epithelial ovarian carcinoma. How it is done: The study was conducted as an open label, multicenter, three-arm phase II clinical trial in women with newly diagnosed epithelial ovarian carcinoma, who have undergone debulking surgery.
The planned number of chemotherapy cycles was 6 in all treatment groups (FIG. 1).
Results were calculated either by using as beginning of the trial period the time of first treatment or the time of randomization. Two pre-planned per protocol interim analyses of PFS and OS from the date of randomization were performed first at 6 months and second at 12 months after the last dose of standard of care chemotherapy of the last enrolled patient. […]
A log-rank test was used for comparing the PFS and OS distributions of the two treatment groups: • H01: PFS/OS group A=PFS/OS group C vs H11: PFS/OS group C≠PFS/OS group A, • H02: PFS/OS group B=PFS/OS group C vs H12: PFS/OS group C≠PFS/OS group B.
The hazard ratio (HR) was calculated using Cox proportional hazard regression. The estimate for the HR was based on fitting a proportional hazards regression model: λ(t)=λ0(t)*exp(βz), • wherein λ0(t) is the baseline hazard function for group C, λ(t) is the hazard function for group A/group B, z is a binary covariate (being 1 for group A/group B and 0 for group C), and exp(β) is the HR. Efficacy in the ITT Population

The mark [3] stands for this setting: bevacizumab 7.5 mg/kg IV q3w, 12 months.
[4] abbreviates: bevacizumab 15 mg/kg IV q3w, 15 months.
Setting [5] is: treatment group C (standard of care chemotherapy alone), shorter reporting time period.

Where two headings read alike, the source gives them in different places. Marks after values point to notes of the source that are not given here.

As to bevacizumab, the “OS HR” value in data set [1] (setting [3]) is 0.99; in data set [1] (bevacizumab 7.5 mg/kg IV q3w, 12 months, listed as Bevacizumab) it was 0.99^c; in data set [1] (setting [4]) it was 0.88; in data set [1] (bevacizumab 15 mg/kg IV q3w, 15 months, listed as Bevacizumab) it was 0.88^c. For the same substance, the “PFS HR” value in data set [1] (setting [3]) was 0.86^c; in data set [1] (setting [4]), 0.7^c. The Safety entry in data set [1] (side effects e.g. gastrointestinal perforation and fistulae, wound healing complications, hypertension, thromboembolism or haemorrhage, congestive heart failure, neutropenia and infections) is listed as “an increased risk for”.

Consider carboplatin and paclitaxel, for which the “patients who have died” value in data set [2] (standard of care arm (group C), per-protocol population, more than 3.5 years after inclusion) was “about 40%”. Further, in data set [2] (setting [5]), the SAEs reported is 14 and the “patients with SAEs” value was found to be 9.
